The results in this text go back to patent publication US9540343B2 (Gilead Sciences, Inc., priority 2011, dated 2017).

As usually defined, the inhibition is the relative decrease from the control value, in per cent. As usually defined, the CC50 is the concentration giving 50% cytotoxicity. High values mean better tolerance by the cells, low ones harm at low concentration.

The test system of one data set is HIV-IIIb. Put plainly: Test A: Antiviral assay in MT4 cells. The class given is cell-based, HIV-1. The settings on record: Human immunodeficiency virus 1, IIIB, MT4, 120 h, read-out: % inhibition at 2 μM, percent inhibition of virus-induced cell killing, from dose response curve at 2 uM drug; MT-4 cells infected with HIV-IIIb, 5 days, CellTiter-Glo. Background: In ATP-based viability assays light output follows the ATP content of the culture.

A further data set can be described thus: in vitro. A digest of the protocol: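 Cytoprotection read-out: CellTiter-Glo chemiluminescence after 5 days at 37 °C of HIV-IIIb-infected MT-4 cells (m.o.i. 0.003) with compound in 10-point 3-fold dilutions, quadruplicate, 10% FBS. Cytotoxicity (CC50) measured identically without virus.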
Where [1] appears, read: human, uninfected MT-4 cells, CC50 (nM), same protocol as Test A, CellTiter-Glo.

For `NC(=O)c1cc(-c2cccnc2[C@H](Cc2cc(F)cc(F)c2)NC(=O)Cn2nc(C(F)(F)F)c3c2C2CC2C3=O)ccc1F` (stereo partly drawn) [Example 465B, 5-(2-((1S)-2-(3,5-difluorophenyl)-1-(2-(4-oxo-3-(trifluoromethyl)-4,4-a,5,5a-tetrahydro-1H-cyclopropa[4,5]cyclopenta[1,2-c]pyrazol-1-yl)acetamido)ethyl)pyridin-3-yl)-2-fluorobenzamide], the inhibition at 2 µM with HIV-IIIb is 3%. The CC50 at 5 days in the data set “in vitro” (setting [1]) is > 53200 nM.
The corresponding values for `NC(=O)c1cc(-c2cccnc2[C@H](Cc2cc(F)cc(F)c2)NC(=O)Cn2nc(C(F)(F)F)c3c2CCC2(C3)OCCO2)ccc1F` [Example 468D, (S)-5-(2-(2-(3,5-difluorophenyl)-1-(2-(3′-(trifluoromethyl)-6′,7′-dihydrospiro[[1,3]dioxolane-2,5′-indazole]-1′(4′H)-yl)acetamido)ethyl)pyridin-3-yl)-2-fluorobenzamide] are 14% and > 53000 nM.
As to `NC(=O)c1cc(-c2cccnc2[C@H](Cc2cc(F)cc(F)c2)NC(=O)Cc2n[nH]c3ccccc23)ccc1F` [Example 469, 5-(2-(1-(2-(1H-indazol-3-yl)acetamido)-2-(3,5-difluorophenyl)ethyl)pyridin-3-yl)-2-fluorobenzamide], in the data set on HIV-IIIb, the inhibition at 2 µM came out at 17%. Moreover, the CC50 at 5 days in “in vitro” (setting [1]) is > 53200 nM.
`Nc1cc(-c2cccnc2[C@H](Cc2cc(F)cc(F)c2)NC(=O)Cc2c[nH]c3ccc(F)cc23)ccc1F` [Example 470, (S)—N-(1-(3-(3-amino-4-fluorophenyl)pyridin-2-yl)-2-(3,5-difluorophenyl)ethyl)-2-(5-fluoro-1H-indol-3-yl)acetamide]: in the data set with HIV-IIIb, the inhibition at 2 µM turned out to be 68%. Moreover, in the data set “in vitro” (setting [1]), the CC50 at 5 days stood at 20800 nM.
`NC(=O)c1cc(-c2cccnc2[C@H](Cc2cc(F)cc(F)c2)NC(=O)Cn2ncc3c2CCCC3)ccc1F` [Example 471, (S)-5-(2-(2-(3,5-difluorophenyl)-1-(2-(4,5,6,7-tetrahydro-1H-indazol-1-yl)acetamido)ethyl)pyridin-3-yl)-2-fluorobenzamide]: the inhibition at 2 µM in the data set with HIV-IIIb came out at 62%. Further, the CC50 at 5 days in “in vitro” (setting [1]) is > 53200 nM.
For `CC(=O)Nc1cc(-c2cccnc2[C@H](Cc2cc(F)cc(F)c2)NC(=O)Cc2c[nH]c3ccc(F)cc23)ccc1F` [Example 473, (S)—N-(1-(3-(3-acetamido-4-fluorophenyl)pyridin-2-yl)-2-(3,5-difluorophenyl)ethyl)-2-(5-fluoro-1H-indol-3-yl)acetamide], in that order: 18% and 14600 nM.
Regarding `O=C(Cn1nc(C(F)(F)F)c2c1CCCC2)NC(Cc1cc(F)cc(F)c1)c1nccnc1-c1ccc(Cl)cc1` (stereo not shown) [Example 474, N-(1-(3-(4-chlorophenyl)pyrazin-2-yl)-2-(3,5-difluorophenyl)ethyl)-2-(3-(trifluoromethyl)-4,5,6,7-tetrahydro-1H-indazol-1-yl)acetamide], the inhibition at 2 µM with HIV-IIIb came out at 17%. The molecule also displayed a CC50 at 5 days in the data set “in vitro” (setting [1]) of 9980 nM.
`Cc1cc2ncn(CC(=O)NC(Cc3cc(F)cc(F)c3)c3nccnc3-c3ccc(Cl)cc3)c2cc1C` (stereo not shown) [Example 475, N-(1-(3-(4-chlorophenyl)pyrazin-2-yl)-2-(3,5-difluorophenyl)ethyl)-2-(5,6-dimethyl-1H-benzo[d]imidazol-1-yl)acetamide]: the inhibition at 2 µM in the data set on HIV-IIIb was found to be 23%. This molecule also had a CC50 at 5 days in “in vitro” (setting [1]) of 20400 nM.
For `NC(=O)c1cc(-c2cccnc2[C@H](Cc2cc(F)cc(F)c2)NC(=O)C2(c3ccccc3)CC2)ccc1F` [Example 477, (S)-5-(2-(2-(3,5-difluorophenyl)-1-(1-phenylcyclopropanecarboxamido)ethyl)pyridin-3-yl)-2-fluorobenzamide], in that order: 0% and 21400 nM.
For `NC(=O)c1cccc(-c2cccnc2[C@H](Cc2cc(F)cc(F)c2)NC(=O)Cc2c[nH]c3ccccc23)c1` [Example 480, (S)-3-(2-(1-(2-(1H-indol-3-yl)acetamido)-2-(3,5-difluorophenyl)ethyl)pyridin-3-yl)benzamide], the inhibition at 2 µM in the data set with HIV-IIIb is 93%. In addition, the midpoint of cytotoxicity in the data set “in vitro” (setting [1]), the CC50 at 5 days, lay at 27800 nM.
Consider `Cc1cccc2[nH]cc(CC(=O)N[C@@H](Cc3cc(F)cc(F)c3)c3ncccc3-c3cccc(C(N)=O)c3)c12` [Example 481, (S)-3-(2-(2-(3,5-difluorophenyl)-1-(2-(4-methyl-1H-indol-3-yl)acetamido)ethyl)pyridin-3-yl)benzamide], for which, in the data set on HIV-IIIb, the inhibition at 2 µM is 53%. Moreover, in “in vitro” (setting [1]), the CC50 at 5 days is 22900 nM.
In the case of `Cc1cc2cnn(CC(=O)N[C@@H](Cc3cc(F)cc(F)c3)c3ncccc3-c3ccc(F)c(C(N)=O)c3)c2cc1C` [Example 485, (S)-5-(2-(2-(3,5-difluorophenyl)-1-(2-(5,6-dimethyl-1H-indazol-1-yl)acetamido)ethyl)pyridin-3-yl)-2-fluorobenzamide], the inhibition at 2 µM in the data set with HIV-IIIb stood at 43%. This molecule also had a CC50 at 5 days in “in vitro” (setting [1]) of 22200 nM.
As for `CC(=O)c1c(C)n(CC(=O)N[C@@H](Cc2cc(F)cc(F)c2)c2ncccc2-c2ccc(Cl)cc2)c2ccccc12` [Example 486, (S)-2-(3-acetyl-2-methyl-1H-indol-1-yl)-N-(1-(3-(4-chlorophenyl)pyridin-2-yl)-2-(3,5-difluorophenyl)ethyl)acetamide], the inhibition at 2 µM in the data set on HIV-IIIb worked out at 76%. Half-maximal cytotoxicity in the data set “in vitro” (human, CC50 (nM), uninfected MT-4 cells, same protocol as Test A, CellTiter-Glo) (CC50 at 5 days) was put at 7080 nM.
In the case of `O=C1Cc2c(cccc2-c2cccnc2[C@H](Cc2cc(F)cc(F)c2)NC(=O)Cn2nc(C(F)F)c3c2C(F)(F)CCC3(F)F)N1` [Example 489D, (S)-2-(3-(difluoromethyl)-4,4,7,7-tetrafluoro-4,5,6,7-tetrahydro-1H-indazol-1-yl)-N-(2-(3,5-difluorophenyl)-1-(3-(2-oxoindolin-4-yl)pyridin-2-yl)ethyl)acetamide], the inhibition at 2 µM with HIV-IIIb was 97%. Further, it took 20800 nM to reach half-maximal cytotoxicity in “in vitro” (setting [1]) (CC50 at 5 days).
For `O=C(Cn1nc(C(F)F)c2c1C(F)(F)CCC2(F)F)N[C@@H](Cc1cc(F)cc(F)c1)c1ncccc1-c1ccc2ccc(=O)[nH]c2c1` [Example 490D, (S)-2-(3-(difluoromethyl)-4,4,7,7-tetrafluoro-4,5,6,7-tetrahydro-1H-indazol-1-yl)-N-(2-(3,5-difluorophenyl)-1-(3-(2-oxo-1,2-dihydroquinolin-7-yl)pyridin-2-yl)ethyl)acetamide], in that order: 87% and 38000 nM.
For `NCc1ccc2[nH]cc(CC(=O)N[C@@H](Cc3cc(F)cc(F)c3)c3ncccc3-c3ccc(Cl)cc3)c2c1` [Example 491F, (S)-2-(5-(aminomethyl)-1H-indol-3-yl)-N-(1-(3-(4-chlorophenyl)pyridin-2-yl)-2-(3,5-difluorophenyl)ethyl)acetamide], the inhibition at 2 µM with HIV-IIIb came out at 18%. Besides, in the data set “in vitro” (setting [1]), half-maximal cytotoxicity (CC50 at 5 days) was put at 7850 nM.
For `NC(=O)c1cc(-c2cccnc2[C@H](Cc2cc(F)cc(F)c2)NC(=O)Cn2nc(C(F)(F)F)c3c2CCC3=O)ccc1F` [Example 492B, (S)-5-(2-(2-(3,5-difluorophenyl)-1-(2-(4-oxo-3-(trifluoromethyl)-5,6-dihydrocyclopenta[c]pyrazol-1(4H)-yl)acetamido)ethyl)pyridin-3-yl)-2-fluorobenzamide], in that order: 2% and > 53200 nM.
